≈ marks a conversion by molar mass, not a printed value. Where two headings read alike, the source gives them in different places.
What was measured:
[1] = test system: Collectotrichum graminicola (Cg); assay: Growth inhibition assay of fungal pathogens, Cg; type: cell-based; settings: 48 h, growth inhibition at 48 hours vs 2% DMSO control
Summary of the method: (§1)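 Inhibition percentages reflect 48 h OD600 and visual scores relative to a 2% DMSO control. Test concentrations were 50, 10, 2 ppm or 2, 0.4, 0.08 ppm final, applied to spores in 17% V8 medium.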

[2] = test system: Fusarium moniliforme (Fm); assay: Growth inhibition assay of fungal pathogens, Fm; type: cell-based; settings: Fusarium verticillioides, 48 h, read-out: Concentration at 90% Inhibition Fm
Summary of the method: as §1

C. krusei = assay: Antifungal Activity Assay (broth microtiter MIC), C. krusei; type: cell-based, Candida krusei; settings: Pichia kudriavzevii, ATCC6258, 48 h
Summary of the method: (§2)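 Colonies from 24 h Sabouraud dextrose agar plates (35° C) are suspended in RPMI 1640+MOPS and diluted to give 2.5×10^3 CFU/mL in the wells. Plates are set up per CLSI M27-A3. Visual MIC is recorded at 48 h.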

Rhizoctonia solani (Rs) = assay: Growth inhibition assay of fungal pathogens, Rs; type: cell-based; settings: 48 h
Septoria tritici (St) = assay: Growth inhibition assay of fungal pathogens, St; type: cell-based; settings: Zymoseptoria tritici, 48 h, growth inhibition at 48 hours vs 2% DMSO control
Summary of the method: as §1

C. parapsilosis = assay: Antifungal Activity Assay (broth microtiter MIC), C. parapsilosis; type: cell-based, Candida parapsilosis; settings: Lodderomyces parapsilosis, ATCC22019, 48 h
Summary of the method: as §2

fungal (fACC2) = fungal (fACC2) (UniProt Q00955); settings: read-out: fACC2 (in vitro ACC2 Inhibition Assay, IC50), ADP-Glo, 5 nM ACC2, 20 μM ATP, 20 μM acetyl-CoA
Sequence of fungal (fACC2) (Q00955 whole entry): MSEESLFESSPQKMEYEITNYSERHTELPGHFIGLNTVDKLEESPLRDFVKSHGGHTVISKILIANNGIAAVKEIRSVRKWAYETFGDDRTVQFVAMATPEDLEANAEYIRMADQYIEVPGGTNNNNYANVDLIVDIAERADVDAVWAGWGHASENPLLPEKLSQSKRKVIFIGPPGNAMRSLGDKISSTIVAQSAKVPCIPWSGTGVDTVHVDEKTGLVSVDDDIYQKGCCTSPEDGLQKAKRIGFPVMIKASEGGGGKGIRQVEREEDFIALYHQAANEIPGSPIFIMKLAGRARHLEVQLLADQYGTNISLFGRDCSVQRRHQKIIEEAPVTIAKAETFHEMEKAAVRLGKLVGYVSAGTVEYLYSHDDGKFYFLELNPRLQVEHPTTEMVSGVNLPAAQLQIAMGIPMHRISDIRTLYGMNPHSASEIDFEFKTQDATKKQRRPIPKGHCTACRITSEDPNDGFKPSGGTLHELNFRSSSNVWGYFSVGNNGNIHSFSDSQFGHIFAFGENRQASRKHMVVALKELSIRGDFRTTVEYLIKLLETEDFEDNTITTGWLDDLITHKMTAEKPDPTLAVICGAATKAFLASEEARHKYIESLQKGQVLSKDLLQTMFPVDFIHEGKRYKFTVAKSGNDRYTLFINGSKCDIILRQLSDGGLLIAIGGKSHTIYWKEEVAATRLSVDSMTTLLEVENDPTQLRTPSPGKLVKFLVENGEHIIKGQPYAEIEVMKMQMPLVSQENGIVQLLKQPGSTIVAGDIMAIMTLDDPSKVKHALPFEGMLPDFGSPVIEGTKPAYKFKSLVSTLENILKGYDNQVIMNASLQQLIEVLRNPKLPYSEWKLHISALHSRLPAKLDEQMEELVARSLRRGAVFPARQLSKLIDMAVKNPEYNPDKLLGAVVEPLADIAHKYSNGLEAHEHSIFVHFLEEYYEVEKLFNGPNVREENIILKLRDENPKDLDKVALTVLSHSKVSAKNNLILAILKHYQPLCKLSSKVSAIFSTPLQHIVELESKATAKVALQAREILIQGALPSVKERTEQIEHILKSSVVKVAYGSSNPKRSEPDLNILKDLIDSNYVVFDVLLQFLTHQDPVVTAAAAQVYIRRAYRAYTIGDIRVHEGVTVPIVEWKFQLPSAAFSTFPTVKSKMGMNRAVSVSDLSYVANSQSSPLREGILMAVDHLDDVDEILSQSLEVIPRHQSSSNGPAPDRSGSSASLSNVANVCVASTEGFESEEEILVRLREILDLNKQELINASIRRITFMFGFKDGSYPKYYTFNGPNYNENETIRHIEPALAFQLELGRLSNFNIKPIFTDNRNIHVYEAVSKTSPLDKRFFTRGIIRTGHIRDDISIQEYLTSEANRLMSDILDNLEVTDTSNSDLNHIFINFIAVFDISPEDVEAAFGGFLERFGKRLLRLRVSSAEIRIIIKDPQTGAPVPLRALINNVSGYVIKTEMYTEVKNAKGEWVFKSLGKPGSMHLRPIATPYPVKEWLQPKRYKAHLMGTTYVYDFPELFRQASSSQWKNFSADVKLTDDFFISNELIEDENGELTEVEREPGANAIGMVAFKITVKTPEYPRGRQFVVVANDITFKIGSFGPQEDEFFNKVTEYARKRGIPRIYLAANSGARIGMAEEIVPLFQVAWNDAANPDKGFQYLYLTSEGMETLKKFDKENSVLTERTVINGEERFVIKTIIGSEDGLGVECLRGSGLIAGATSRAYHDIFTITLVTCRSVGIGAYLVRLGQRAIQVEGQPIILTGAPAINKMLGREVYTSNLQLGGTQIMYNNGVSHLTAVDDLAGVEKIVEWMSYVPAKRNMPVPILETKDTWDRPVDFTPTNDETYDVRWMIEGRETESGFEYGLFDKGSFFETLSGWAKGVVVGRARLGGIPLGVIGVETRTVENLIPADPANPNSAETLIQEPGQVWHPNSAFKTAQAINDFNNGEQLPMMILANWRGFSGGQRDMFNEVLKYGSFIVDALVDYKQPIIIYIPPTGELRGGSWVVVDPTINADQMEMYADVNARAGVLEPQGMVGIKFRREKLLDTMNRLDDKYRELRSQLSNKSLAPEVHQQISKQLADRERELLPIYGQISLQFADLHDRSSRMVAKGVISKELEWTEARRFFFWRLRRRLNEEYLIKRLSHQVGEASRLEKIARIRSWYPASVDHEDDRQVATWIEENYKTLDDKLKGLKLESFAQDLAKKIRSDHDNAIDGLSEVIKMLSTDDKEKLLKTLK

C. albicans = assay: Antifungal Activity Assay (broth microtiter MIC), C. albicans; type: cell-based, Candida albicans; settings: Candida albicans, ATCC90028, 48 h
Summary of the method: as §2

human (hACC2) = human (hACC2) (Homo sapiens, UniProt O00763); assay: In vitro ACC inhibition assay (ADP-Glo), hACC2; type: biochemical; settings: 5 nM ACC2, 20 μM ATP, 20 μM acetyl-CoA
Sequence of human (hACC2) (O00763 whole entry): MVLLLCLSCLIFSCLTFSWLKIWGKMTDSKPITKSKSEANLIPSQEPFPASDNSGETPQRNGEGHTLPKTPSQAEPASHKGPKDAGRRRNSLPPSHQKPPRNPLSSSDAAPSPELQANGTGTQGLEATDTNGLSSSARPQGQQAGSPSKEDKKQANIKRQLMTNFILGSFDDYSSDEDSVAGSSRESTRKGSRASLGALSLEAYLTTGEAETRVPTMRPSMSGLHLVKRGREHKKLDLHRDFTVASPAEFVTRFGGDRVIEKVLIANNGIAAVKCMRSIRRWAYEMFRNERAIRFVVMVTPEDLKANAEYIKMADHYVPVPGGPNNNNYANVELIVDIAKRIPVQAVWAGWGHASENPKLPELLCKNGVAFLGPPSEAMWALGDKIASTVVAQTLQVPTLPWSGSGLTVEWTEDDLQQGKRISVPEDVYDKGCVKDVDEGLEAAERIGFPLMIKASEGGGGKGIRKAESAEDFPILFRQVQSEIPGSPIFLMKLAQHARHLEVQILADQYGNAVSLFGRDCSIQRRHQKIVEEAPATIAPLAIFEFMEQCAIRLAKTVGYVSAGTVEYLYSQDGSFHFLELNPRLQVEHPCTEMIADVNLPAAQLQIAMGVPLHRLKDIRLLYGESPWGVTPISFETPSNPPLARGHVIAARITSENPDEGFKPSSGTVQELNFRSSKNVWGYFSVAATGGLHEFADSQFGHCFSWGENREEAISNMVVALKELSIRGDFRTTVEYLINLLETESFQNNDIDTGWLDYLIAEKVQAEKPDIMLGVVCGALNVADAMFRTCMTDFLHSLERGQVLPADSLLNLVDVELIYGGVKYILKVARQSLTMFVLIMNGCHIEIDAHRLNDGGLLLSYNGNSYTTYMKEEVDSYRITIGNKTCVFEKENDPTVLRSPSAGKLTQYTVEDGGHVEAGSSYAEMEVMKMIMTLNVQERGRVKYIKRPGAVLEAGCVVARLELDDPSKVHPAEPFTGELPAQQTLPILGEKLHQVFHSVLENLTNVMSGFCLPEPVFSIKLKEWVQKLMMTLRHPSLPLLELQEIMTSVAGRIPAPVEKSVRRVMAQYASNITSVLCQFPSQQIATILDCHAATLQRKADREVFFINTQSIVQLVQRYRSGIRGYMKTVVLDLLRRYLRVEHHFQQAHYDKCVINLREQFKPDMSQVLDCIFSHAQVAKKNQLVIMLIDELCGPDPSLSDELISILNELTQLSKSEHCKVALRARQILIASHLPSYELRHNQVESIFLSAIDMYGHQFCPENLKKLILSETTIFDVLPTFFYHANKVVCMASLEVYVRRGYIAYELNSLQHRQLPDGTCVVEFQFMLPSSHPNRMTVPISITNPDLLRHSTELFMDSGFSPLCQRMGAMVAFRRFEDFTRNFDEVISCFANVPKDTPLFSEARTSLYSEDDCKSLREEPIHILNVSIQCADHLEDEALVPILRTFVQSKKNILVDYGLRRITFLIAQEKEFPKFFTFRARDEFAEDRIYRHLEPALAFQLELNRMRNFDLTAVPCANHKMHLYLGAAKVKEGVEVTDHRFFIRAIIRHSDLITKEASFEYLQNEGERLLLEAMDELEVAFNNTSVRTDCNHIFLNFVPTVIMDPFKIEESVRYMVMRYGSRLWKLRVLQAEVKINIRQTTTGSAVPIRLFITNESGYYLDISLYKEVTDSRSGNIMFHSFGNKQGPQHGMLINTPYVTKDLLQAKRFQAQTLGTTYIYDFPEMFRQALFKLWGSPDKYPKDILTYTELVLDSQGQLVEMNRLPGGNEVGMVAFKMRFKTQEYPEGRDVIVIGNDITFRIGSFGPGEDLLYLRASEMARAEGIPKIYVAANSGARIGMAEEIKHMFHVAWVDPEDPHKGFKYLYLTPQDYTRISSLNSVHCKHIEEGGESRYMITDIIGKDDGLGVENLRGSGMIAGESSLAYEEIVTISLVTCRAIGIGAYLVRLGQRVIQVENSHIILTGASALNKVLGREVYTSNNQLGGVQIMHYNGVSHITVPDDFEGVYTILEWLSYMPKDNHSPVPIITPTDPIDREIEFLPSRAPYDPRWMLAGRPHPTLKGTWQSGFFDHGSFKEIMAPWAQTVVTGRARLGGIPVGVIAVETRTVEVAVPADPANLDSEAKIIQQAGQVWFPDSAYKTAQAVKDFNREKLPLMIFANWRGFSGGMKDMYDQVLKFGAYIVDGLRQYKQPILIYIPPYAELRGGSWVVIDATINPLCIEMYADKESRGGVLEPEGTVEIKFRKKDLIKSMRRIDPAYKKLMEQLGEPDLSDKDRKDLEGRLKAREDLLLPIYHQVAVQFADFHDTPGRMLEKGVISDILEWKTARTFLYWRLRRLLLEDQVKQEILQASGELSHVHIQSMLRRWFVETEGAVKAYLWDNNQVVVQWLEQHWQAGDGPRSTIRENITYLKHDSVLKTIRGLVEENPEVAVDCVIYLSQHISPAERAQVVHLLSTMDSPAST
Method: The detailed procedure is as follows. […] 10 μL ADP glo reagent was added. […] 20 μL kinase detection reagent was added.

Botrtyis cinerea (Bc) = assay: Growth inhibition assay of fungal pathogens, Bc; type: cell-based; settings: 48 h, growth inhibition at 48 hours vs 2% DMSO control
Summary of the method: as §1

Diplodia maydis (Dm) = assay: Growth inhibition assay of fungal pathogens, Dm; type: cell-based; settings: Stenocarpella maydis, 48 h, growth inhibition at 48 hours vs 2% DMSO control
Summary of the method: as §1

[3] = test system: Phytophthora capsici (Pc); assay: Growth inhibition assay of fungal pathogens, Pc; type: cell-based; settings: 48 h
Summary of the method: as §1

[4] = test system: Fusarium virguliforme (Fv); assay: Growth inhibition assay of fungal pathogens, Fv; type: cell-based; settings: 48 h
Summary of the method: as §1

[5] = read-out: Concentration at 90% Inhibition Cg, Collectotrichum graminicola
[6] = read-out: MIC, C. krusei ATCC 6258, Table 3b (additional results), 3 replicates, MIC recorded at 48 h
[7] = read-out: Concentration at 90% Inhibition Rs, Rhizoctonia solani, mycelial plugs, growth inhibition at 48 hours vs 2% DMSO control
[8] = read-out: Concentration at 90% Inhibition St, Septoria tritici
[9] = read-out: MIC, C. parapsilosis ATCC 22019, Table 3b (additional results), 3 replicates, MIC recorded at 48 h
[10] = read-out: MIC, C. albicans ATCC 90028, Table 3b (additional results), 3 replicates, MIC recorded at 48 h
[11] = read-out: Concentration at 90% Inhibition Bc, Botrtyis cinerea
[12] = read-out: Concentration at 90% Inhibition Dm, Diplodia maydis
[13] = read-out: Concentration at 90% Inhibition Pc, Phytophthora capsici, growth inhibition at 48 hours vs 2% DMSO control
[14] = read-out: Concentration at 90% Inhibition Fv, Fusarium virguliforme, growth inhibition at 48 hours vs 2% DMSO control
[15] = Collectotrichum graminicola, read-out: Concentration at 90% Inhibition Cg
[16] = Fusarium moniliforme, growth inhibition at 48 hours vs 2% DMSO control
[17] = Table 3b (additional results), ATCC 6258, 3 replicates, MIC recorded at 48 h, read-out: MIC, C. krusei ATCC 6258
[18] = mycelial plugs, growth inhibition at 48 hours vs 2% DMSO control, read-out: Concentration at 90% Inhibition Rs
[19] = Septoria tritici, read-out: Concentration at 90% Inhibition St
[20] = Table 3b (additional results), ATCC 22019, 3 replicates, MIC recorded at 48 h, read-out: MIC, C. parapsilosis ATCC 22019
[21] = Table 3b (additional results), ATCC 90028, 3 replicates, MIC recorded at 48 h, read-out: MIC, C. albicans ATCC 90028
[22] = Botrtyis cinerea, read-out: Concentration at 90% Inhibition Bc
[23] = Diplodia maydis, read-out: Concentration at 90% Inhibition Dm
[24] = growth inhibition at 48 hours vs 2% DMSO control, read-out: Concentration at 90% Inhibition Pc
[25] = growth inhibition at 48 hours vs 2% DMSO control, read-out: Concentration at 90% Inhibition Fv

SMILES: Cc1c(-n2nccn2)sc2c1c(=O)n(C(C)(C)C(=O)NC(C)C)c(=O)n2C[C@H](OC(C)C)c1cc(F)ccc1CCC#N [Compound I-234]
- IC90 [1, 5]: 0.4 µg/mL (≈ 0.656 µM)
- IC90 [2]: 0.08 µg/mL (≈ 0.131 µM)
- MIC (C. krusei; [6]): 1.01 to 2 µg/mL (≈ 1.66 to 3.28 µM)
- IC90 (Rhizoctonia solani (Rs); [7]): 0.08 µg/mL (≈ 0.131 µM)
- IC90 (Septoria tritici (St); [8]): > 50 µg/mL
- MIC (C. parapsilosis; [9]): 2.01 to 4 µg/mL (≈ 3.3 to 6.56 µM)
- IC50 (fungal (fACC2); Table 2b, additional results): 1 to 5 nM
- MIC (C. albicans; [10]): 2.01 to 4 µg/mL (≈ 3.3 to 6.56 µM)
- IC50 (human (hACC2); Table 2b, additional results): 10 to 40 nM
- IC90 (Botrtyis cinerea (Bc); [11]): 0.4 µg/mL (≈ 0.656 µM)
- IC90 (Diplodia maydis (Dm); [12]): 2 µg/mL (≈ 3.28 µM)
- IC90 [3, 13]: > 50 µg/mL
- IC90 [4, 14]: 0.08 µg/mL (≈ 0.131 µM)

SMILES: COc1ccc(F)cc1[C@@H](O)Cn1c(=O)n([C@H](C)C(=O)N2CCCC2)c(=O)c2c(C)c(-n3nccn3)sc21 [Compound I-195]
- IC90 [1, 15]: 2 µg/mL (≈ 3.69 µM)
- IC90 [2, 16]: 0.4 µg/mL (≈ 0.737 µM)
- MIC (C. krusei; [17]): 1.01 to 2 µg/mL (≈ 1.86 to 3.69 µM)
- IC90 (Rhizoctonia solani (Rs); [18]): 0.4 µg/mL (≈ 0.737 µM)
- IC90 (Septoria tritici (St); [19]): > 50 µg/mL
- MIC (C. parapsilosis; [20]): 1.01 to 2 µg/mL (≈ 1.86 to 3.69 µM)
- IC50 (fungal (fACC2); Table 2b, additional results): 0.3 to 1 nM
- MIC (C. albicans; [21]): 1.01 to 2 µg/mL (≈ 1.86 to 3.69 µM)
- IC50 (human (hACC2); Table 2b, additional results): 5 to 10 nM
- IC90 (Botrtyis cinerea (Bc); [22]): 2 µg/mL (≈ 3.69 µM)
- IC90 (Diplodia maydis (Dm); [23]): 10 µg/mL (≈ 18.4 µM)
- IC90 [3, 24]: > 50 µg/mL
- IC90 [4, 25]: 0.4 µg/mL (≈ 0.737 µM)

SMILES: Cc1c(-n2nccn2)sc2c1c(=O)n(C(C)(C)C(=O)NC(C)C)c(=O)n2C[C@H](O[C@H]1CC[C@@H](O)CC1)c1cc(F)ccc1OCC#N [Compound I-222]
- IC90 [1, 5]: 2 µg/mL (≈ 3 µM)
- IC90 [2]: 0.08 µg/mL (≈ 0.12 µM)
- MIC (C. krusei; [6]): 0.25 to 1 µg/mL (≈ 0.374 to 1.5 µM)
- IC90 (Rhizoctonia solani (Rs); [7]): 0.4 µg/mL (≈ 0.599 µM)
- IC90 (Septoria tritici (St); [8]): > 50 µg/mL
- MIC (C. parapsilosis; [9]): 0.25 to 1 µg/mL (≈ 0.374 to 1.5 µM)
- IC50 (fungal (fACC2); Table 2b, additional results): 0.3 to 1 nM
- MIC (C. albicans; [10]): 0.25 to 1 µg/mL (≈ 0.374 to 1.5 µM)
- IC50 (human (hACC2); Table 2b, additional results): 5 to 10 nM
- IC90 (Botrtyis cinerea (Bc); [11]): 2 µg/mL (≈ 3 µM)
- IC90 (Diplodia maydis (Dm); [12]): 0.4 µg/mL (≈ 0.599 µM)
- IC90 [3, 13]: > 50 µg/mL
- IC90 [4, 14]: 2 µg/mL (≈ 3 µM)

SMILES: CCOC(=O)C(C)(C)n1c(=O)c2c(C)c(-n3nccn3)sc2n(C[C@H](OCCO)c2cc(F)ccc2OC)c1=O [Compound I-74, Ethyl (R)-2-(1-(2-(5-fluoro-2-methoxyphenyl)-2-(2-hydroxyethoxy)ethyl)-5-methyl-2,4-dioxo-6-(2H-1,2,3-triazol-2-yl)-1,4-dihydro-thieno[2,3-d]pyrimidin-3(2H)-yl)-2-methylpropanoate]
- IC90 [1, 15]: 0.4 µg/mL (≈ 0.695 µM)
- IC90 [2, 16]: 0.08 µg/mL (≈ 0.139 µM)
- MIC (C. krusei; Table 3a, ATCC 6258, 3 replicates, MIC recorded at 48 h, read-out: MIC, C. krusei ATCC 6258): 0.25 to 1 µg/mL (≈ 0.434 to 1.74 µM)
- MIC (C. krusei; [17]): 1.01 to 2 µg/mL (≈ 1.75 to 3.47 µM)
- IC90 (Rhizoctonia solani (Rs); [18]): 0.08 µg/mL (≈ 0.139 µM)
- IC90 (Septoria tritici (St); [19]): 10 µg/mL (≈ 17.4 µM)
- MIC (C. parapsilosis; Table 3a, ATCC 22019, 3 replicates, MIC recorded at 48 h, read-out: MIC, C. parapsilosis ATCC 22019): 2.1 to 4 µg/mL (≈ 3.65 to 6.95 µM)
- MIC (C. parapsilosis; [20]): 2.01 to 4 µg/mL (≈ 3.49 to 6.95 µM)
- IC50 (fungal (fACC2); Table 2a): 1 to 5 nM
- IC50 (fungal (fACC2); Table 2b, additional results): 1 to 5 nM
- MIC (C. albicans; Table 3a, ATCC 90028, 3 replicates, MIC recorded at 48 h, read-out: MIC, C. albicans ATCC 90028): 2.1 to 4 µg/mL (≈ 3.65 to 6.95 µM)
- MIC (C. albicans; [21]): 2.01 to 4 µg/mL (≈ 3.49 to 6.95 µM)
- IC50 (human (hACC2); Table 2a): 5 to 10 nM
- IC50 (human (hACC2); Table 2b, additional results): 5 to 10 nM
- IC90 (Botrtyis cinerea (Bc); [22]): 0.08 µg/mL (≈ 0.139 µM)
- IC90 (Diplodia maydis (Dm); [23]): 0.4 µg/mL (≈ 0.695 µM)
- IC90 [3, 24]: > 50 µg/mL
- IC90 [4, 25]: 0.4 µg/mL (≈ 0.695 µM)

SMILES: Cc1c(-n2nccn2)sc2c1c(=O)n(C(C)(C)C(=O)NC(C)C)c(=O)n2C[C@H](OCCO)c1cc(F)ccc1O [Compound I-226]
- IC90 [1, 15]: 10 µg/mL (≈ 17.4 µM)
- IC90 [2, 16]: 2 µg/mL (≈ 3.48 µM)
- MIC (C. krusei; [17]): 1.01 to 2 µg/mL (≈ 1.76 to 3.48 µM)
- IC90 (Rhizoctonia solani (Rs); [18]): 2 µg/mL (≈ 3.48 µM)
- IC90 (Septoria tritici (St); [19]): > 50 µg/mL
- MIC (C. parapsilosis; [20]): 2.01 to 4 µg/mL (≈ 3.5 to 6.96 µM)
- IC50 (fungal (fACC2); Table 2b, additional results): 0.3 to 1 nM
- MIC (C. albicans; [21]): 2.01 to 4 µg/mL (≈ 3.5 to 6.96 µM)
- IC50 (human (hACC2); Table 2b, additional results): 10 to 40 nM
- IC90 (Botrtyis cinerea (Bc); [22]): 10 µg/mL (≈ 17.4 µM)
- IC90 (Diplodia maydis (Dm); [23]): > 50 µg/mL
- IC90 [3, 24]: > 50 µg/mL
- IC90 [4, 25]: 10 µg/mL (≈ 17.4 µM)

SMILES: Cc1c(-n2nccn2)sc2c1c(=O)n(C(C)(C)C(=O)NC(C)C)c(=O)n2CCc1cc(F)ccc1OC1CCOCC1 [Compound I-279]
- IC90 [1, 15]: 10 µg/mL (≈ 16.7 µM)
- IC90 [2, 16]: 0.08 µg/mL (≈ 0.134 µM)
- MIC (C. krusei; [17]): 2.01 to 4 µg/mL (≈ 3.36 to 6.68 µM)
- IC90 (Rhizoctonia solani (Rs); [18]): 10 µg/mL (≈ 16.7 µM)
- IC90 (Septoria tritici (St); [19]): > 50 µg/mL
- MIC (C. parapsilosis; [20]): 1.01 to 2 µg/mL (≈ 1.69 to 3.34 µM)
- IC50 (fungal (fACC2); Table 2b, additional results): 0.3 to 1 nM
- MIC (C. albicans; [21]): 2.01 to 4 µg/mL (≈ 3.36 to 6.68 µM)
- IC50 (human (hACC2); Table 2b, additional results): 10 to 40 nM
- IC90 (Botrtyis cinerea (Bc); [22]): 2 µg/mL (≈ 3.34 µM)
- IC90 (Diplodia maydis (Dm); [23]): > 50 µg/mL
- IC90 [3, 24]: > 50 µg/mL
- IC90 [4, 25]: 0.08 µg/mL (≈ 0.134 µM)
